Patent publication US10479786B2, “Protein kinase inhibitors” (Princeton Drug Discovery Inc, priority 2016, dated 2019)

Key:
SRC = target: T1, SRC (Homo sapiens, UniProt P12931); assay: Off-chip Mobility Shift Assay, kinase inhibition; type: biochemical; conditions: recombinant SRC; for inhibition at 0.001 µM: at 1 nM; for inhibition at 0.01 µM: at 10 nM
T1 construct: purchased Carna Biosciences, Inc

ARG = target: T2, ARG (Homo sapiens, UniProt P42684); assay: Off-chip Mobility Shift Assay, kinase inhibition; type: biochemical; conditions: recombinant ARG; for inhibition at 0.01 µM: at 10 nM, read-out: inhibition
T2 construct: purchased Carna Biosciences, Inc
T2 sequence (P42684 whole entry): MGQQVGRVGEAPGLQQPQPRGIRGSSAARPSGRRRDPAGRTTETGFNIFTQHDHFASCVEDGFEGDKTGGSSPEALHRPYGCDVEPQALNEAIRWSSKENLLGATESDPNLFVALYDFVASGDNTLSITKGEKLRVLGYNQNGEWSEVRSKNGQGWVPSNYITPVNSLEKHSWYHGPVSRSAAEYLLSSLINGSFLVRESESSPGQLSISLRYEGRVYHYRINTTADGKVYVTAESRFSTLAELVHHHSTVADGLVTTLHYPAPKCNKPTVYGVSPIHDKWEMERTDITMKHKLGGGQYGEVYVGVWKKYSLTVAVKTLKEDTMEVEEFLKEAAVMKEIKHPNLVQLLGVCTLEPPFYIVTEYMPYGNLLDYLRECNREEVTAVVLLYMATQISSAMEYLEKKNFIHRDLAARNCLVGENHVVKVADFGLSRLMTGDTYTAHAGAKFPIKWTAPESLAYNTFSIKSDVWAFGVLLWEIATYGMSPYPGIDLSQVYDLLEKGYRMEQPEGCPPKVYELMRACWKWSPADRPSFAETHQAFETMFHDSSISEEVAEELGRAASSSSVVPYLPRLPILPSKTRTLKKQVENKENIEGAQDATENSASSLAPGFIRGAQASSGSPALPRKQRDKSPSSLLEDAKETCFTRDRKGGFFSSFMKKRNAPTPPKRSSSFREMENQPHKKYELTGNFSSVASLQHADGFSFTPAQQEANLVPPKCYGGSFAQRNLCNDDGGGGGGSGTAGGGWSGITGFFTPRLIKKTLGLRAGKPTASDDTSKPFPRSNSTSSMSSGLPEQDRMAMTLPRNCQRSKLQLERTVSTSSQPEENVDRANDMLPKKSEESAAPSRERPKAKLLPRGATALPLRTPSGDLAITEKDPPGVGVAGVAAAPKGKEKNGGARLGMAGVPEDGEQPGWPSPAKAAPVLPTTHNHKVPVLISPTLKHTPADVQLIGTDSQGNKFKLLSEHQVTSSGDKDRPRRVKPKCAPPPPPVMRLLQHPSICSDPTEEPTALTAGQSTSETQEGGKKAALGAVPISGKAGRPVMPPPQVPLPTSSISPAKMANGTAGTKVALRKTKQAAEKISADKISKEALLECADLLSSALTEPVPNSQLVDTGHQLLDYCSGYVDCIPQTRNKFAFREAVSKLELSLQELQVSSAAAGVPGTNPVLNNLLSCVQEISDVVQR

HCK = target: T3, HCK (Homo sapiens, UniProt P08631); assay: Off-chip Mobility Shift Assay, kinase inhibition; type: biochemical; conditions: recombinant HCK; for inhibition at 0.001 µM: at 1 nM; for inhibition at 0.01 µM: at 10 nM, read-out: inhibition
T3 construct: purchased Carna Biosciences, Inc
T3 sequence (P08631 whole entry): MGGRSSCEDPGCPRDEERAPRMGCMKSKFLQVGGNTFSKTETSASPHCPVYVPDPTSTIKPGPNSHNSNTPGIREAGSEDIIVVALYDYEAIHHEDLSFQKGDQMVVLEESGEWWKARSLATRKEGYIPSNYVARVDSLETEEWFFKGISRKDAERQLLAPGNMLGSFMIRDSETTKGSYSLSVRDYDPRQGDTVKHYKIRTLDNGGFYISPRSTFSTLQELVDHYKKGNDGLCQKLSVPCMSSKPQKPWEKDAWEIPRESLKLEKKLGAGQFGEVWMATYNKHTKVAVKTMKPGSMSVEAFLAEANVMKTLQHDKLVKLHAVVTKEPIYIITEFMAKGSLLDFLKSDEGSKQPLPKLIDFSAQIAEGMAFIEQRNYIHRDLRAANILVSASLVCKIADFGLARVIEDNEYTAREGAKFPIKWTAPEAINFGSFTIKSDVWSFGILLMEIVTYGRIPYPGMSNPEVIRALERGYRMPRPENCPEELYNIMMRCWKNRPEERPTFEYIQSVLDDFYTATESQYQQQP

BLK = target: T4, BLK (Homo sapiens, UniProt P51451); assay: Off-chip Mobility Shift Assay, kinase inhibition; type: biochemical; conditions: recombinant BLK; for inhibition at 0.001 µM: at 1 nM; for inhibition at 0.01 µM: at 10 nM
T4 construct: purchased Carna Biosciences, Inc
T4 sequence (P51451 whole entry): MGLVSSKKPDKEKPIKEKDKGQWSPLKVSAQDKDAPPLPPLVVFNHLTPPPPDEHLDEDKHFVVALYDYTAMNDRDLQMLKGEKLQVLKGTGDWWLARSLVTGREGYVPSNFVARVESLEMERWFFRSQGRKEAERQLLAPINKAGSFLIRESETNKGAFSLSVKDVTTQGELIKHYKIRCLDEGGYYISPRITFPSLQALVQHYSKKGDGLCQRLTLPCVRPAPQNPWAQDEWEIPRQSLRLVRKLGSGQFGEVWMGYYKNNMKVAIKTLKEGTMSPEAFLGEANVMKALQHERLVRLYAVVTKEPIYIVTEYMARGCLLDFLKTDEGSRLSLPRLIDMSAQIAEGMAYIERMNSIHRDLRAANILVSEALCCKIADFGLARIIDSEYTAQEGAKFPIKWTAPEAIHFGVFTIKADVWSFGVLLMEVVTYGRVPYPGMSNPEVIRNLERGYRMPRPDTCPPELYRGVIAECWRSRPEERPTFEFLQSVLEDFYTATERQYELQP

FYN(isoform a) = target: T5, FYN(isoform a) (Homo sapiens, UniProt P06241); assay: Off-chip Mobility Shift Assay, kinase inhibition; type: biochemical; conditions: recombinant FYN(isoform a); for inhibition at 0.001 µM: at 1 nM; for inhibition at 0.01 µM: at 10 nM
T5 construct: purchased Carna Biosciences, Inc
T5 sequence (P06241 whole entry, canonical isoform): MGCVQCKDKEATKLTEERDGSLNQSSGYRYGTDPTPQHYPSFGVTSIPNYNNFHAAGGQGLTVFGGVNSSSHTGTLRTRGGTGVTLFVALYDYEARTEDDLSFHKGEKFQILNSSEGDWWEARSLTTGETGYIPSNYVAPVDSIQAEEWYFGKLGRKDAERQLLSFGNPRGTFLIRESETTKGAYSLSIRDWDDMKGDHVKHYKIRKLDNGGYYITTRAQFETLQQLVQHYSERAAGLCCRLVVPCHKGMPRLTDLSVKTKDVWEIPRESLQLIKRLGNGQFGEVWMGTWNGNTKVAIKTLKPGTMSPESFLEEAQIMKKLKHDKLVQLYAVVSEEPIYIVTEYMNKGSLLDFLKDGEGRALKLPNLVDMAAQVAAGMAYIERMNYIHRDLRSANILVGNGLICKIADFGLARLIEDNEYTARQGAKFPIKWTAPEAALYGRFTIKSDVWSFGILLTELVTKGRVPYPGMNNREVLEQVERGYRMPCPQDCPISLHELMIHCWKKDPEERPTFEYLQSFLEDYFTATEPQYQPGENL

DDR2 = target: T6, DDR2 (Homo sapiens, UniProt Q16832); assay: Off-chip Mobility Shift Assay, kinase inhibition; type: biochemical; conditions: recombinant DDR2; for inhibition at 0.01 µM: at 10 nM, read-out: inhibition
T6 construct: purchased Carna Biosciences, Inc
T6 sequence (Q16832 22-855): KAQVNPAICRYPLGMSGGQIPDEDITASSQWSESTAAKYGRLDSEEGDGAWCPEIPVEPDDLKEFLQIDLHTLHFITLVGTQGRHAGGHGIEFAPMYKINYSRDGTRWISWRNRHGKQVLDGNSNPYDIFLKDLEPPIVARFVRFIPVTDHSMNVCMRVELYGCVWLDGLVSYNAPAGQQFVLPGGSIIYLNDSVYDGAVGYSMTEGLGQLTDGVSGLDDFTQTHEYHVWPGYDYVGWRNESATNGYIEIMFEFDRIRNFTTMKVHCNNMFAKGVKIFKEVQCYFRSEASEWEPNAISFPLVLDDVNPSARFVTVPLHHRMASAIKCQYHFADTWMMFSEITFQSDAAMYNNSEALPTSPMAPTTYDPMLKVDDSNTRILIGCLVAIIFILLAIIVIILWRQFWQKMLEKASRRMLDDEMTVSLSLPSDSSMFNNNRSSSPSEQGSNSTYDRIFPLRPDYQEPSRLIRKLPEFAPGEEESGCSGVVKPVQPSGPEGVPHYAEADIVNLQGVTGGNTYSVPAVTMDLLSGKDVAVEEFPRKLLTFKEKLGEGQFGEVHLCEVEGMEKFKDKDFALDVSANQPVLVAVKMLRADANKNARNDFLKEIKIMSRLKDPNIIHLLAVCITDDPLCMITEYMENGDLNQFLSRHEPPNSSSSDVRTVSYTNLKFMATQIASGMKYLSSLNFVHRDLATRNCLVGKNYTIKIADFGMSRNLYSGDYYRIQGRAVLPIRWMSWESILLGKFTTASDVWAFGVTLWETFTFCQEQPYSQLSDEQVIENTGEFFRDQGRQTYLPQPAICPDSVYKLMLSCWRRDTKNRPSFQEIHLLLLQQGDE

[1] = Metabolic stability in human liver microsomes; type: in vitro ADME; conditions: human liver microsomes
Protocol: FIG. 1. Metabolic stability of compounds in human liver microsomal incubations. […] Concentrations at specified times were determined by LC-MS/MS.
The incubation reactions at various time points were quenched by adding 2× volumes of acetonitrile containing 100 nM reserpine. The quenched incubation samples were centrifuged at 4000 RPM for 10 min, and the supernatants injected for LC/MS/MS analysis. LC/MS/MS analysis was carried out on a AB Sciex 4000 Q Trap LC/MS/MS system coupled with Shimadzu Prominence UFLCXR 20 series (including a CBM-20A controller, two LC-20ADXR solvent delivery units, SIL-20AC HT autosampler, CTO-20A column oven, and a SPD-20A UV detector).

[2] = tested on: battery of selected protein kinases; assay: In vitro screen of a battery of selected protein kinases (summary statement); type: biochemical; conditions: BTK, BMX, ABL, ABL(E255K), SRC, ACK, ARG, BLK, DDR2, EPHA, FGR, FMS, FRK, FYN, HCK, LCK, LYN, PDGFRα, PDGFRβ, YES, PIK3CA/PIK3R1, among others
TEC = target: T7, TEC (Homo sapiens, UniProt P42680); assay: Off-chip Mobility Shift Assay, kinase inhibition; type: biochemical; conditions: at 1 nM; recombinant TEC
T7 construct: purchased Carna Biosciences, Inc
T7 sequence (P42680 1-631): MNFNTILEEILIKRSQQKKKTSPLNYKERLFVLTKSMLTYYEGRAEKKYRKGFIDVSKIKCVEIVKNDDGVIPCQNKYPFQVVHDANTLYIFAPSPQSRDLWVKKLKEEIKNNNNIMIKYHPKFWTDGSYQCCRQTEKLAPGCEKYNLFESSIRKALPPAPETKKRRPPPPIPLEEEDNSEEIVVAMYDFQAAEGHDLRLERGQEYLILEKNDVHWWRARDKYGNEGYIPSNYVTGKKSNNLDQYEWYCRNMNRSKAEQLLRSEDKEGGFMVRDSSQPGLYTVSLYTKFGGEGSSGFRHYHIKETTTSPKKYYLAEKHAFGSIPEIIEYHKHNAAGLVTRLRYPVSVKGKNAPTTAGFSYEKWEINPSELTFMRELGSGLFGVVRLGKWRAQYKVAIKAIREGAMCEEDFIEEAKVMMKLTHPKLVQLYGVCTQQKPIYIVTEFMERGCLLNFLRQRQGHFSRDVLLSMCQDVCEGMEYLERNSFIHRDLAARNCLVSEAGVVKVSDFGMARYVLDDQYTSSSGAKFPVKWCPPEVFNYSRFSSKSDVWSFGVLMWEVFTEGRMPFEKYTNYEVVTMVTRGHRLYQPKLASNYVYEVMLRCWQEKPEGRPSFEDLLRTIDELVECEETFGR

T1 sequence (P12931 whole entry): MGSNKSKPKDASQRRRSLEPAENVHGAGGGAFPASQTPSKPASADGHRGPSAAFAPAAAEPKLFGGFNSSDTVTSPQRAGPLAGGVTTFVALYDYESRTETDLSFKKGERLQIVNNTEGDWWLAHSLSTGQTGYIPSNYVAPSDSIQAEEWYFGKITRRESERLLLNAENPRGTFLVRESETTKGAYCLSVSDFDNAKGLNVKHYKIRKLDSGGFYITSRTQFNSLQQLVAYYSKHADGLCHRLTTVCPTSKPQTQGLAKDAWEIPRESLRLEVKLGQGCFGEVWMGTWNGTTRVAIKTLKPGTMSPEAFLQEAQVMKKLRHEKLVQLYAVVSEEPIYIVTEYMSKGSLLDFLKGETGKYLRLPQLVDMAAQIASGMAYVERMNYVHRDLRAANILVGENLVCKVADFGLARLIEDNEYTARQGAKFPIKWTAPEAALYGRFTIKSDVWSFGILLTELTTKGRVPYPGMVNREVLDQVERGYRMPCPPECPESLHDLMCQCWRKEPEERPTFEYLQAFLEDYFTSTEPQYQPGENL

Compound | inhibition at 0.001 µM (SRC) | inhibition at 0.01 µM (SRC) | inhibition at 0.001 µM (ARG; at 1 nM) | inhibition at 0.01 µM (ARG) | inhibition at 0.001 µM (HCK) | inhibition at 0.01 µM (HCK) | inhibition at 0.001 µM (BLK) | inhibition at 0.01 µM (BLK) | inhibition at 0.001 µM (FYN(isoform a)) | inhibition at 0.01 µM (FYN(isoform a)) | inhibition at 0.001 µM (DDR2; at 1 nM) | inhibition at 0.01 µM (DDR2) | metabolic stability compared to dasatinib [1] | inhibition at 0.001 µM (TEC) | activity to inhibit kinases [2]
[2H]c1cc(C)c(NC(=O)c2cnc(Nc3cc(N4CCCCC4)nc(C)n3)s2)c(Cl)c1 [Compound I, N-(2-chloro-4-deuterio-6-methyl-phenyl)-2-[[2-methyl-6-(1-piperidyl)pyrimidin-4-yl]amino]thiazole-5-carboxamide] | > 50% | > 50% | > 50% | > 50% | > 50% | > 50% | > 50% | > 50% | > 50% | > 50% | > 50% | > 50% | significantly greater stability |  | potent activity
[2H]c1cc(C)c(NC(=O)c2cnc(Nc3cc(N4CC[C@H](N)C4)nc(C)n3)s2)c(Cl)c1 [Compound VI, N-(2-chloro-4-dutero-6-methylphenyl)-2-[[2-methyl-6-((S)-3-aminopyrrolidin-1-yl)pyrimidin-4-yl]amino]thiazole-5-carboxamide] | > 50% | > 50% |  | > 50% | > 50% | > 50% |  | > 50% |  | > 50% |  | > 50% | significantly greater stability | > 50% | potent activity
Cc1nc(Nc2ncc(C(=O)Nc3c(C)cccc3Cl)s2)cc(N2CCC(O)CC2)n1 [Compound IX, N-(2-chloro-6-methylphenyl)-2-[[2-methyl-6-(4-hydroxypiperidin-1-yl)pyrimidin-4-yl]amino]thiazole-5-carboxamide] | > 50% | > 50% |  | > 50% | > 50% | > 50% |  | > 50% |  | > 50% |  | > 50% |  | > 50% | potent activity
[2H]c1cc(C)c(NC(=O)c2cnc(Nc3cc(N4CCC(O)CC4)nc(C)n3)s2)c(Cl)c1 [Compound II, N-(2-chloro-4-deuterio-6-methyl-phenyl)-2-[[6-(4-hydroxy-1-piperidyl)-2-methyl-pyrimidin-4-yl]amino]thiazole-5-carboxamide] | > 50% | > 50% |  | > 50% | > 50% | > 50% | > 50% | > 50% | > 50% | > 50% |  | > 50% |  | > 50% | potent activity

Further lines, with some results ahead:

inhibition at 0.001 µM (SRC) | inhibition at 0.01 µM (SRC) | inhibition at 0.001 µM (ARG; at 1 nM) | inhibition at 0.01 µM (ARG) | inhibition at 0.001 µM (HCK) | inhibition at 0.01 µM (HCK) | inhibition at 0.001 µM (BLK) | inhibition at 0.01 µM (BLK) | inhibition at 0.001 µM (FYN(isoform a)) | inhibition at 0.01 µM (FYN(isoform a)) | inhibition at 0.001 µM (DDR2; at 1 nM) | inhibition at 0.01 µM (DDR2) | metabolic stability compared to dasatinib [1] | inhibition at 0.001 µM (TEC) | Compound | activity to inhibit kinases [2]
> 50% | > 50% |  | > 50% | > 50% | > 50% |  | > 50% |  | > 50% |  | > 50% | significantly greater stability | > 50% | Cc1nc(Nc2ncc(C(=O)Nc3c(C)cccc3Cl)s2)cc(N2CC[C@H](N)C2)n1 [Compound XII, N-(2-chloro-6-methylphenyl)-2-[[2-methyl-6-((S)-3-aminopyrrolidin-1-yl)pyrimidin-4-yl]amino]thiazole-5-carboxamide] | potent activity
> 50% | > 50% |  | > 50% | > 50% | > 50% |  | > 50% |  | > 50% |  | > 50% | significantly greater stability | > 50% | [2H]c1cc(C)c(NC(=O)c2cnc(Nc3cc(N4CC[C@@H](N)C4)nc(C)n3)s2)c(Cl)c1 [Compound VII, N-(2-chloro-4-deutero-6-methylphenyl)-2-[[2-methyl-6-((R)-3-aminopyrrolidin-1-yl)pyrimidin-4-yl]amino]thiazole-5-carboxamide] | potent activity
> 50% | > 50% |  | > 50% | > 50% | > 50% |  | > 50% |  | > 50% |  | > 50% | significantly greater stability | > 50% | Cc1nc(Nc2ncc(C(=O)Nc3c(C)cccc3Cl)s2)cc(N2CC[C@@H](N)C2)n1 [Compound XIII, N-(2-chloro-6-methylphenyl)-2-[[2-methyl-6-((R)-3-aminopyrrolidin-1-yl)pyrimidin-4-yl]amino]thiazole-5-carboxamide] | potent activity
> 50% | > 50% |  | > 50% | > 50% | > 50% |  | > 50% |  | > 50% |  | > 50% | significantly greater stability | > 50% | Cc1nc(Nc2ncc(C(=O)Nc3c(C)cccc3Cl)s2)cc(N2CCCCC2)n1 [Compound VIII, N-(2-chloro-6-methylphenyl)-2-[[2-methyl-6-(piperidin-1-yl)pyrimidin-4-yl]amino]thiazole-5-carboxamide] | potent activity
